Reference: patent publication US20120058499A1, “Bioluminescent Detection of Protease Activity” (priority 2010, published 2012)

Assays:
Assay in all cases: Isopeptidase cleavage of substrates (DUB-Glo luminescence / fluorescence), S/B
Format in all cases: biochemical
USP2core = target: T1, USP2core (Homo sapiens, UniProt O75604); conditions: USP2core 0.5 nM
T1 construct: USP2core (the common catalytic core domain of the two isoforms of USP2, USP2a and USP2b)
T1 sequence (O75604 267-599 limits assumed): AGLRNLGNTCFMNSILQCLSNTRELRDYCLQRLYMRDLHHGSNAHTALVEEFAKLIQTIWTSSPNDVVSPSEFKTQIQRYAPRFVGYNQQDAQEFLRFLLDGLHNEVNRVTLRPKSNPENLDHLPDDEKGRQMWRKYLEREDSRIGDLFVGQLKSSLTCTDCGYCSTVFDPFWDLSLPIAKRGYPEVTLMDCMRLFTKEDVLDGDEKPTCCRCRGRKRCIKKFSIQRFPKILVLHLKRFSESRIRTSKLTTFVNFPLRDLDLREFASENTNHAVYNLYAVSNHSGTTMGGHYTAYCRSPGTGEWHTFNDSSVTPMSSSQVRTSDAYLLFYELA
Method: (§1) The Ub-amino-luciferin substrate was compared to the Z-Arg-Leu-Arg-Gly-Gly (SEQ ID NO: 1)-amino-luciferin substrate (Promega DUB-Glo™ substrate) to determine the limit of detection of the activities of four different isopeptidases (UCHL3, USP2core, USP7, and USP8). For all enzymes, these two substrates were tested in parallel using the DUB-Glo™ assay system (Promega) according to the manufacturer's instructions. All enzymes were diluted into 50 mM HEPES, pH 7.5, 10 mM DTT, 0.1% Prionex (Sigma-Aldrich). For testing Z-Arg-Leu-Arg-Gly-Gly (SEQ ID NO: 1)-amino-luciferin, final isopeptidase concentrations were as follows: UCHL3 equal to approximately 0.35 to 50 nM; USP2core equal to approximately 10 to 500 nM, USP7 equal to approximately 0.1 to 50 nM, and USP8 equal to approximately 20 to 500 nM. For testing Ub-amino-luciferin, final isopeptidase concentrations were as follows: UCHL3 equal to approximately 0.05 to 50 pM; USP2core, USP7, and USP8 equal to approximately 0.5 to 500 pM. Reactions were assembled through addition of 50 μl of diluted enzyme and 50 μl of DUB-Glo™ reaction mixture supplemented with either Z-Arg-Leu-Arg-Gly-Gly (SEQ ID NO: 1)-amino-luciferin (final concentration of 20 μM) or Ub-amino-luciferin (final concentration of 100 nM). The signal in relative luminescence units (RLUs) was measured at 30 minutes from reaction assembly on an Envision multi-label plate reader (Perkin Elmer). The signal to background ratio (S/B) was calculated as (maximum signal−signal in absence of enzyme)/(signal in absence of enzyme).
(§2) The Ub-amino-luciferin (Ub-LUC) substrate was compared to the Ub-AMC substrate (FIG. 3) and the Ub-Rhodamine110 (Ub-Rho) substrate (FIG. 4), to determine the limit of detection for the activities of four different isopeptidases (UCHL3, USP2core, USP7, and USP8). All enzymes were diluted into 50 mM Tris, pH 8.0, 5 mM DTT, 0.05% (w/v) CHAPS. Final isopeptidase concentrations were as follows: UCHL3 equal to approximately 2 pM to 40 pM; USP2core, USP7, and USP8 were equal to approximately 10 to 1000 nM. Either Ub-AMC or Ub-Rhodamine110 (final concentration equal to 250 nM) were diluted into 50 mM Tris, pH 8.0, 5 mM DTT, 0.05% (w/v) CHAPS. Reactions were assembled through the addition of 50 μl diluted isopeptidase to 50 μl of either Ub-AMC or Ub-Rhodamine110, and the signal in relative fluorescence units (RFUs) was measured at 30 minutes on an Envision multi-label plate reader (Perkin Elmer). For Ub-AMC, fluorescence was monitored with filters corresponding to excitation at 340 nm and emission at 460 nm. For Ub-Rhodamine110, fluorescence was monitored with filters corresponding to excitation at 485 nm and emission at 531 nm. The signal to background (S/B) was calculated as (maximum signal−signal in absence of enzyme)/(signal in absence of enzyme).

USP7 = USP7 (Homo sapiens, UniProt Q93009); conditions: USP7 0.5 nM
USP7, sequence (Q93009 whole entry, species assumed): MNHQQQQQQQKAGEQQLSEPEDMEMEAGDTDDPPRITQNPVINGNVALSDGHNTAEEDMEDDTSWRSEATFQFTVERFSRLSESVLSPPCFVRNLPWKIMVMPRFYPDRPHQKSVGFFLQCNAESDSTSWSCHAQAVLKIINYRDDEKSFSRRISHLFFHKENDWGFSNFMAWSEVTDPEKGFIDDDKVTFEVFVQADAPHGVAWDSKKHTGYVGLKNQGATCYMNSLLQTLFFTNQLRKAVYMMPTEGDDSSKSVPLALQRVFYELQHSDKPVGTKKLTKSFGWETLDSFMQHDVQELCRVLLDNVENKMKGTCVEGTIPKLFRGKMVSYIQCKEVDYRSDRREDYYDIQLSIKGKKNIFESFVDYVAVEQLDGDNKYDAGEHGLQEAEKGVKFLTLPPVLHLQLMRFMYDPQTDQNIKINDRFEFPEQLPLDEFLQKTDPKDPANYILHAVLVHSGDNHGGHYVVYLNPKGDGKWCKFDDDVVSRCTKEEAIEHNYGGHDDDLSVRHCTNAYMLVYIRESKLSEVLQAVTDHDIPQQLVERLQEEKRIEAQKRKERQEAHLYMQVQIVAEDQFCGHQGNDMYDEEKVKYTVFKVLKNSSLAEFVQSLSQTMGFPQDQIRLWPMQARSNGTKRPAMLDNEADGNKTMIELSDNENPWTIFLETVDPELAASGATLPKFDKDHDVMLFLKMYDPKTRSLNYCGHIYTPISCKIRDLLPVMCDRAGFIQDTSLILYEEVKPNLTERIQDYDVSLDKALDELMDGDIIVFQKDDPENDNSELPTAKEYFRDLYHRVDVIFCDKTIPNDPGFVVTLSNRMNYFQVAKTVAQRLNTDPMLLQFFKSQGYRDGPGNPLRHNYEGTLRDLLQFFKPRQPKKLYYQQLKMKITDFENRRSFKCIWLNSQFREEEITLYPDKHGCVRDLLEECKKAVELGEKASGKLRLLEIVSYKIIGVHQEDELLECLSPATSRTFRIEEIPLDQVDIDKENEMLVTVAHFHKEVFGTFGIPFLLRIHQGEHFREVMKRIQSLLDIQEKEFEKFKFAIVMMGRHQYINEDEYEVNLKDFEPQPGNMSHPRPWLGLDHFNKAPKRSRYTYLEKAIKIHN
Method: as §1, §2

USP8 = target: T2, USP8 (Homo sapiens, UniProt P40818); conditions: USP8 0.5 nM
T2 sequence (P40818 1-1118): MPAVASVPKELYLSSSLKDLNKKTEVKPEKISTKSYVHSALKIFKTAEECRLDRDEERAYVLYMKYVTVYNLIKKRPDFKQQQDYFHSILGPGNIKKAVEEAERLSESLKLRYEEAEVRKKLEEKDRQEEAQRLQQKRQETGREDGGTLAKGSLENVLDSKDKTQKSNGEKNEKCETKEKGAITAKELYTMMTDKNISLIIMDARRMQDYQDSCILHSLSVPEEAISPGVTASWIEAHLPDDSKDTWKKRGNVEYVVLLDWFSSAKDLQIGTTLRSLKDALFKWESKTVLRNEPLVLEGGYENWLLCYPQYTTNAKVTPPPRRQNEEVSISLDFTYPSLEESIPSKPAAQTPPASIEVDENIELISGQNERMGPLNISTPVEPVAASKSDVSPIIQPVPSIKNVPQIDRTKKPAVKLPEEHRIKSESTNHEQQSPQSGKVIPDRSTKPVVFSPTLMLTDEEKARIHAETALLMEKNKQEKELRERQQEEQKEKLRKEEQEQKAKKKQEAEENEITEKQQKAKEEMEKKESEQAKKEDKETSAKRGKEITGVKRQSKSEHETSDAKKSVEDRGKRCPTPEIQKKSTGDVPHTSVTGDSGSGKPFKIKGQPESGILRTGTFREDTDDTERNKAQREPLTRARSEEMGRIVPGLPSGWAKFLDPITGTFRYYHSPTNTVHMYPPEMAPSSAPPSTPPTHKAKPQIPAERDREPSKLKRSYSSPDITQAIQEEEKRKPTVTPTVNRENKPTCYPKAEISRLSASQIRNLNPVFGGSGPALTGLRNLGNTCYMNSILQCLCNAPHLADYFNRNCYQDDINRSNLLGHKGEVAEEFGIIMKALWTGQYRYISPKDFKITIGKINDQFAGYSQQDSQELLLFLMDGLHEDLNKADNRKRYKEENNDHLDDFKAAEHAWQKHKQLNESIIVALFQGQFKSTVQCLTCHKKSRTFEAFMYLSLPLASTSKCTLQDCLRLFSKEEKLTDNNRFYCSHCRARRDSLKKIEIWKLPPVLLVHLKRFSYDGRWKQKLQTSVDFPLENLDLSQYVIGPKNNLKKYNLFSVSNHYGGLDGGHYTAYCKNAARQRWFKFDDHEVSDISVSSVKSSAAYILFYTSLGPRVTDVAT
Method: as §1, §2

Measured: S/B increase relative to both Ub-AMC and Ub-Rhodamine110

Ub(1-76)-aminoluciferin [Ub-LUC]
~100 fold: all assays above
